Experimental data taken from patent US20080226718A1, “Indole and Azaindole Derivatives For the Treatment of Inflammatory and Autoimmune Diseases” (Brane Discovery S.r.l, priority 2005, published 2008).

Assays:
Assay type in all cases: cell-based, SJL mice
[1] = system: encephalitogenic lymphocytes; experiment: Spontaneous adhesion of encephalitogenic T cells on purified ICAM-1; settings: Mus musculus, Lymphocyte, 1 h; for inhibition at 5 µM: [cpd] 5 μM, read-out: Inhibition of Spontaneous Adhesion in encephalitogenic lymphocytes (% of control/non-treated cells) ICAM-1; for inhibition at 10 µM: [cpd] 10 μM; for inhibition at 10 µM / inhibition at 25 µM / inhibition at 50 µM / inhibition at 100 µM: read-out: Inhibition of Spontaneous Adhesion in encephalitogenic lymphocytes (% of control/non-treated cells) ICAM-1 (converted); for inhibition at 25 µM: [cpd] 25 μM; for inhibition at 50 µM: [cpd] 50 μM; for inhibition at 100 µM: [cpd] 100 μM
Method: (§1) Spontaneous adhesion of encephalitogenic lymphocytes was measured in adhesion assays on purified ICAM-1 and VCAM-1 as previously described (Constantin G. et al., J. Immunol. 162, 1144-1149, 1999). Autoreactive T cells were obtained from SJL mice immunized with PLP139-151 as described (Piccio L. et al., J. Immunol. 168, 1940-1949, 2002). Lymphocytes were treated with test compound at concentrations between 5-100 μM for 1 h, while control/untreated cells were treated with vehicle (DMSO). Results are expressed as percentage of inhibition over control (=100%) ±S.D and are the mean of three-four experiments.
(§2) ICAM-1 and VCAM-1 are adhesion molecules from the family of immunoglobulins and control the migration of lymphocytes through the endothelium during inflammatory responses. Encephalitogenic T cells are activated lymphocytes displaying spontaneous adhesion on ICAM-1 and VCAM-1 and have increased migration capacities in inflammation sites. Spontaneous adhesion of encephalitogenic lymphocytes was measured in adhesion assays on purified ICAM-1 and VCAM-1 as described in the method.

[2] = system: encephalitogenic lymphocytes; experiment: Spontaneous adhesion of encephalitogenic T cells on purified VCAM-1; settings: Mus musculus, Lymphocyte, 1 h; for inhibition at 5 µM: [cpd] 5 μM, read-out: Inhibition of Spontaneous Adhesion in encephalitogenic lymphocytes (% of control/non-treated cells) VCAM-1; for inhibition at 10 µM: [cpd] 10 μM; for inhibition at 10 µM / inhibition at 25 µM / inhibition at 50 µM: read-out: Inhibition of Spontaneous Adhesion in encephalitogenic lymphocytes (% of control/non-treated cells) VCAM-1 (converted); for inhibition at 25 µM: [cpd] 25 μM; for inhibition at 50 µM: [cpd] 50 μM
Method: as §1, §2

[3] = system: encephalitogenic lymphocytes; experiment: Chemokine-induced adhesion of murine encephalitogenic T cells to ICAM-1; settings: for Block of chemokine-induced autoreactive lymphocyte adhesion, in words: 5-50 μM for 1 h, 1 μM CCL19; for Chemokine-induced Adhesion in encephalitogenic lymphocytes, Mean counts ± S.D., in presence of MIP3-β stimulation: 1 μM CCL19 (MIP-3beta); for Chemokine-induced Adhesion in encephalitogenic lymphocytes, Mean counts ± S.D., in presence of MIP3-β stimulation / Adhesion in encephalitogenic lymphocytes, Mean counts ± S.D., in absence of MIP3-β stimulation: ICAM-1
Method: Adhesion was performed on purified integrin ligands and was evaluated as reported in Constantin G. et al., Immunity, 16, 759-769, 2000. Briefly, primary naïve lymphocytes, polymorphonuclear neutrophils (PMNs) or monocytes were isolated form healthy donors. In other experiments, murine autoreactive T cells were obtained from SJL mice immunized with PLP139-151 as described (Piccio L. et al., J. Immunol, 168, 1940-1949, 2002). Cells were resuspended at 4×10^6/ml in PBS, CaCl2, MgCl2 1 mM, 10% FCS, pH 7.2. Adhesion assays were performed on eighteen well glass slides coated overnight at 4° C. with ligands for CR3 (fibrinogen) or LFA-1 (ICAM-1). 20 μl of cell suspension were added to the wells and stimulated at 37° C. with 5 μl of agonists prior to washing, fixation and computer-assisted enumeration of bound cells.
Integrin activation was measured as induction of rapid adhesion triggered by the classical chemoattractant N-formyl-L-methionyl-L-leucyl-phenylalanine (fMLP) (100 nM) or by the CC chemokine MIP3β (CCL19, 1 μM). PMNs and monocytes were triggered to adhere to fibrinogen (CR3 ligand); naive human lymphocytes or murine encephalitogenic T cells were triggered to adhere to ICAM-1 (LFA-1 ligand). Triggered adhesion was evaluated after 2 min of stimulation under static conditions. The cells were pretreated at 37° C. for 30-60 min with the indicated concentrations of the test compound. Results are expressed as percentage of inhibition over control (=100%) and are the mean of three experiments in the case of human leukocytes. Results are expressed as mean counts and are the mean counts ±S.D of three experiments and are the mean of three experiments in the case of murine encephalitogenic lymphocytes.
Chemokines trigger rapid arrest of lymphocytes in blood vessels through pertussis toxin-sensitive G protein coupled receptors. Rapid adhesion to purified ICAM-1 was measured in in vitro adhesion assays using control/untreated cells and lymphocytes treated with concentration between 5-50 μM for 1 h. Autoreactive lymphocytes were then stimulated with 1 μM CCL19 (MIP-3beta) for 3 min. […] These compounds were already efficient in blocking adhesion using a concentration of 5 μM for the cell treatment.

Row | SMILES | inhibition at 5 µM [1] | inhibition at 10 µM [1] | inhibition at 25 µM [1] | inhibition at 50 µM [1] | inhibition at 100 µM [1] | inhibition at 5 µM [2] | inhibition at 10 µM [2] | inhibition at 25 µM [2] | inhibition at 50 µM [2] | Block of chemokine-induced autoreactive lymphocyte adhesion, in words [3] | Chemokine-induced Adhesion in encephalitogenic lymphocytes, Mean counts ± S.D., in presence of MIP3-β stimulation ([3]; [cpd] 5 μM) | Adhesion in encephalitogenic lymphocytes, Mean counts ± S.D., in absence of MIP3-β stimulation ([3]; [cpd] 5 μM) | Chemokine-induced Adhesion in encephalitogenic lymphocytes, Mean counts ± S.D., in presence of MIP3-β stimulation ([3]; [cpd] 10 μM) | Adhesion in encephalitogenic lymphocytes, Mean counts ± S.D., in absence of MIP3-β stimulation ([3]; [cpd] 10 μM) | Chemokine-induced Adhesion in encephalitogenic lymphocytes, Mean counts ± S.D., in presence of MIP3-β stimulation ([3]; [cpd] 25 μM) | Adhesion in encephalitogenic lymphocytes, Mean counts ± S.D., in absence of MIP3-β stimulation ([3]; [cpd] 25 μM) | Chemokine-induced Adhesion in encephalitogenic lymphocytes, Mean counts ± S.D., in presence of MIP3-β stimulation ([3]; [cpd] 50 μM) | Adhesion in encephalitogenic lymphocytes, Mean counts ± S.D., in absence of MIP3-β stimulation ([3]; [cpd] 50 μM)
1 | COC(=O)c1[nH]c2cc(OC)c(OC)cc2c1-c1ccccc1 [Example 3] | 78% | 79.5% | 90% | 92% | 99% | 6% | 9% | 32.5% | 71.4% | almost complete block | 10.5 ± 3.0 | 1.5 ± 2.0 | 8.7 ± 3.0 | 1.8 ± 1.0 | 3.5 ± 1.5 | 1.2 ± 1.0 | 5.0 ± 2.0 | 0.5 ± 2.0
2 | COc1ccc(-c2c(C#N)[nH]c3cc(OC)c(OC)cc23)cc1 [Example 17] | 72.8% | 72.5% | 76% | 92% | 99% | 34% | 53% | 71.5% | 89% | almost complete block | 13.6 ± 3.5 | 2.0 ± 1.0 | 10.0 ± 3.0 | 0.9 ± 0.2 | 1.8 ± 1.0 | 0.6 ± 0.5 | 2.1 ± 0.9 | 0.4 ± 0.1
3 | COc1ccc(-c2c(C#N)n(CCCO)c3cc(OC)c(OC)cc23)cc1 [Example 44] | 75% | 84% | 88% | 91.5% | 99% | 29% | 39% | 43% | 84% | almost complete block | 2.1 ± 0.5 | 1.0 ± 0.9 | 3.7 ± 1.1 | 0.4 ± 1.7 | 1.8 ± 0.5 | 0.4 ± 0.1 | 0.1 ± 0.5 | 0.4 ± 0.5
4 | COc1ccc(-c2c3n(c4cc(OC)c(OC)cc24)CCNC3=O)cc1 [Example 27] | 69% | 76% | 82% | 90% | 99% | 11% | 31% | 35.5% | 82% | almost complete block | 17.7 ± 2.5 | 5.0 ± 2.2 | 18.1 ± 4.3 | 1.7 ± 1.0 | 9.3 ± 0.5 | 1.5 ± 0.1 | 5.1 ± 1.1 | 1.2 ± 1.1
